Measurements taken from US10722514B2 (FLX Bio, Inc., priority 2017, dated 2020).
Where a name gives a salt, the structure may show the parent alone. Read-outs that look alike come from different tables or passages of the source.

Target: T1, recombinant full-length USP7 (Homo sapiens, UniProt Q93009)
T1 construct: A 25 μl reaction volume containing recombinant full-length USP7 (62 pM)
Assay: USP7-mediated ubiquitin-rhodamine cleavage assay
Type: biochemical
Conditions: recombinant full-length USP7 62 pM, ubiquitin-rhodamine 100 nM, 1 hour reaction at room temperature
Outline: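 Rhodamine fluorescence read-out after acetic acid stop; IC50 by 4-parameter nonlinear regression. Enzyme at 62 pM, substrate ubiquitin-rhodamine 100 nM final, 1 h at room temperature in the dark, after 30 min compound preincubation. Buffer: HEPES pH 7.3, NaCl, TCEP, BSA; 1% DMSO.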

[1] = 30-minute pre-incubation, read-out: Potency (USP7 IC50)
[2] = 30-minute incubation with compound, read-out: Potency: USP7 IC50

T1 sequence (Q93009 whole entry): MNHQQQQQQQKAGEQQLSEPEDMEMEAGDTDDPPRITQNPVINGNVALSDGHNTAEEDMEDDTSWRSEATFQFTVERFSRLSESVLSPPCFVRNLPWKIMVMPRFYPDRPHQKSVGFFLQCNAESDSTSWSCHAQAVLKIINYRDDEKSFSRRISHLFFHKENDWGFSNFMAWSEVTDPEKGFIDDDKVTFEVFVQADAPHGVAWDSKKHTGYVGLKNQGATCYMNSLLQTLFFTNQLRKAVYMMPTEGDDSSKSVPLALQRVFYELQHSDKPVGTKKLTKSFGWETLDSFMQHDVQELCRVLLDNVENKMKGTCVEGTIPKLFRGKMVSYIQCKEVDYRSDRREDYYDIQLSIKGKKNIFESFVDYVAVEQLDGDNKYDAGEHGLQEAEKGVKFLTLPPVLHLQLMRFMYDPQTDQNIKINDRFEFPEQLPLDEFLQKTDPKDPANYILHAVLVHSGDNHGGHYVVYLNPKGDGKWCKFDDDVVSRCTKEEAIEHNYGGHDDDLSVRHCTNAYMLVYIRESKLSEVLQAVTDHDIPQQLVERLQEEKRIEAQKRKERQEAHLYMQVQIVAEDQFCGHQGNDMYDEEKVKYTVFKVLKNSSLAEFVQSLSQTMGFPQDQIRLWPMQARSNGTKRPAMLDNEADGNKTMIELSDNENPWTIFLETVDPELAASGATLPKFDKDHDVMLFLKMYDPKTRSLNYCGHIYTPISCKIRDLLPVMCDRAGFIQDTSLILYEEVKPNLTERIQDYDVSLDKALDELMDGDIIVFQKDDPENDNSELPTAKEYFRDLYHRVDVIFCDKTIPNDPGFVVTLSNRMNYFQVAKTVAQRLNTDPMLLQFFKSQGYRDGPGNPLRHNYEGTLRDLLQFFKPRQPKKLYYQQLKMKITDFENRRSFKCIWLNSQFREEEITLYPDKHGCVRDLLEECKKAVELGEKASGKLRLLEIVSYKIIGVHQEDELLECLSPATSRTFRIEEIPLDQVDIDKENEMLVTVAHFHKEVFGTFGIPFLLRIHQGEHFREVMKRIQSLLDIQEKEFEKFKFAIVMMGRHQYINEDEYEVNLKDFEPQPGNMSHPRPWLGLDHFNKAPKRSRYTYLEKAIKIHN

Compound | IC50 [1] | IC50 [2] | further results
Cc1cc(Cl)cc(-c2ccnc3cc(CO)sc23)c1O[C@@H]1CCC[C@H]1N [Example 75, (7-(2-(((1R,2R)-2-Aminocyclopentyl)oxy)-5-chloro-3-methylphenyl)thieno[3,2-b]pyridin-2-yl)methanol] | – | 10000 to 30000 nM | –
Cc1cc(Cl)cc(-c2ccnc3cc(CO)sc23)c1O[C@@H]1CC[C@@H](N)C1 [Example 90, (7-(2-(((1R,3R)-3-Aminocyclopentyl)oxy)-5-chloro-3-methylphenyl)thieno[3,2-b]pyridin-2-yl)methanol] | – | 1000 to 10000 nM | –
Cc1cc(Cl)cc(-c2ccnc3cc(CO)sc23)c1OC(C)C1CNC1 (stereo not shown) [Example 32, (7-(2-(1-(Azetidin-3-yl)ethoxy)-5-chloro-3-methylphenyl)thieno[3,2-b]pyridin-2-yl)methanol] | – | 10000 to 30000 nM | –
Cc1cc(C)c(O[C@H]2CCCNC2)c(-c2ccnc3cc(CO)sc23)c1 [Example 248, (S)-(7-(3,5-Dimethyl-2-(piperidin-3-yloxy)phenyl)thieno[3,2-b]pyridin-2-yl)methanol] | – | 10000 to 30000 nM | –
Cc1cc(Cl)cc(-c2ccnc3cc(CN4C(=O)SC(C)(C)C4=O)sc23)c1O[C@@H]1CNC[C@@H]1F [Example 145, 3-((7-(5-Chloro-2-(((3R,4S)-4-fluoropyrrolidin-3-yl)oxy)-3-methylphenyl)thieno[3,2-b]pyridin-2-yl)methyl)-5,5-dimethylthiazolidine-2,4-dione] | – | < 1000 nM | –
Cc1cc(Cl)cc(-c2ncnc3cc(CN4C(=O)C5CC5C4=O)sc23)c1O[C@@H]1CNC[C@@H]1F (stereo partly drawn) [Example 351, 3-[[4-[5-chloro-2-[(3R,4S)-4-fluoropyrrolidin-3-yl]oxy-3-methyl-phenyl]thieno[3,2-d]pyrimidin-6-yl]methyl]-3-azabicyclo[3.1.0]hexane-2,4-dione dihydrochloride] | – | < 1000 nM | –
Cc1cc(Cl)cc(-c2ccnc3cc(CN4C(=O)CCC4=O)sc23)c1O[C@@H]1CN(C2CCC2)C[C@@H]1F [Example 322, 1-[[7-[5-chloro-2-[(3R,4S)-1-cyclobutyl-4-fluoro-pyrrolidin-3-yl]oxy-3-methyl-phenyl]thieno[3,2-b]pyridin-2-yl]methyl]pyrrolidine-2,5-dione] | – | < 1000 nM | –
Cc1cc(Cl)cc(-c2ncnc3cc(CN4C(=O)CCC4=O)sc23)c1O[C@H]1CC[C@H](C)NC1 [Example 338, 1-[[4-[5-chloro-3-methyl-2-[[(3S,6S)-6-methyl-3-piperidyl]oxy]phenyl]thieno[3,2-d]pyrimidin-6-yl]methyl]pyrrolidine-2,5-dione dihydrochloride] | – | < 1000 nM | –
Cc1cc(Cl)cc(-c2ccnc3cc(CN4C(=O)CCC4=O)sc23)c1O[C@H]1CCCCNC1 [Example 268, (S)-1-((7-(2-(azepan-3-yloxy)-5-chloro-3-methylphenyl)thieno[3,2-b]pyridin-2-yl)methyl)pyrrolidine-2,5-dione] | – | < 1000 nM | –
Cc1cc(Cl)cc(-c2ccnc3cc(Cn4c(=O)ccn(CC(F)(F)F)c4=O)sc23)c1OCC1(C(F)F)CNC1 [Example 673, 3-[[7-[5-chloro-2-[[3-(difluoromethyl)azetidin-3-yl]methoxy]-3-methyl-phenyl]thieno[3,2-b]pyridin-2-yl]methyl]-1-(2,2,2-trifluoroethyl)pyrimidine-2,4-dione] | – | – | IC50 (30-minute incubation, read-out: Potency (USP7 IC50)): < 1000 nM
Cc1cc(Cl)cc(-c2ccnc3cc(CN4C(=O)C5CC5C4=O)sc23)c1O[C@@H]1CN(C)C[C@@H]1F (stereo partly drawn) [Example 314, 3-[[7-[5-chloro-2-[(3R,4S)-4-fluoro-1-methyl-pyrrolidin-3-yl]oxy-3-methyl-phenyl]thieno[3,2-b]pyridin-2-yl]methyl]-3-azabicyclo[3.1.0]hexane-2,4-dione] | – | < 1000 nM | –
CCC(O)c1cc2nccc(-c3cc(Cl)cc(C)c3OCC3(F)CNC3)c2s1 (stereo not shown) [Example 35, 1-(7-(5-Chloro-2-((3-fluoroazetidin-3-yl)methoxy)-3-methylphenyl)thieno[3,2-b]pyridin-2-yl)propan-1-ol] | – | 1000 to 10000 nM | –
Cc1cc([N+](=O)[O-])cc(-c2ccnc3cc(Cn4c(=O)ccn(CC(F)(F)F)c4=O)sc23)c1OCc1cn[nH]c1 [Example 283, 3-[[7-[3-methyl-5-nitro-2-(1H-pyrazol-4-ylmethoxy)phenyl]thieno[3,2-b]pyridin-2-yl]methyl]-1-(2,2,2-trifluoroethyl)pyrimidine-2,4-dione; 2,2,2-trifluoroacetic acid] | – | < 1000 nM | –
Cc1cc(Cl)cc(-c2ccnc3cc(CN4C(=O)CCC4C(F)(F)F)sc23)c1O[C@@H]1CNC[C@@H]1F (stereo partly drawn) [Example 147, 1-((7-(5-Chloro-2-(((3R,4S)-4-fluoropyrrolidin-3-yl)oxy)-3-methylphenyl)thieno[3,2-b]pyridin-2-yl)methyl)-5-(trifluoromethyl)pyrrolidin-2-one] | – | < 1000 nM | –
Cc1cc([N+](=O)[O-])cc(-c2ccnc3cc(Cn4c(=O)ccn(CC(F)(F)F)c4=O)sc23)c1Oc1cncc(N)c1 [Example 281, 3-[[7-[2-[(5-amino-3-pyridyl)oxy]-3-methyl-5-nitro-phenyl]thieno[3,2-b]pyridin-2-yl]methyl]-1-(2,2,2-trifluoroethyl)pyrimidine-2,4-dione] | – | < 1000 nM | –
Cc1cc(C#N)cc(-c2ncnc3cc(CN4C(=O)c5ccccc5C4=O)sc23)c1O[C@@H]1CNC[C@@H]1F [Example 110, 3-(6-((1,3-Dioxoisoindolin-2-yl)methyl)thieno[3,2-d]pyrimidin-4-yl)-4-(((3R,4S)-4-fluoropyrrolidin-3-yl)oxy)-5-methylbenzonitrile] | – | < 1000 nM | –
Cc1cc(Cl)cc(-c2ccnc3cc(CO)sc23)c1OC1CCC12CNC2 (stereo not shown) [Example 49, (7-(2-((2-Azaspiro[3.3]heptan-5-yl)oxy)-5-chloro-3-methylphenyl)thieno[3,2-b]pyridin-2-yl)methanol] | – | 1000 to 10000 nM | –
Cc1cc(Cl)cc(-c2ccnc3cc(CN4C(=O)CCC4=O)sc23)c1O[C@@H]1C[C@H]2CC[C@@H](C1)N2 [Example 215, 1-((7-(2-(((1R,3s,5S)-8-Azabicyclo[3.2.1]octan-3-yl)oxy)-5-chloro-3-methylphenyl)thieno[3,2-b]pyridin-2-yl)methyl)pyrrolidine-2,5-dione] | – | < 1000 nM | –
Cc1cc(Cl)cc(-c2ccnc3cc(CO)sc23)c1O[C@H]1C[C@H]2CC[C@@H](C1)N2 [Example 193, (7-(2-(((1R,3r,5S)-8-Azabicyclo[3.2.1]octan-3-yl)oxy)-5-chloro-3-methylphenyl)thieno[3,2-b]pyridin-2-yl)methanol] | – | 1000 to 10000 nM | –

Continued, in another order:

IC50 [1] | IC50 [2] | Compound | further results
< 1000 nM | – | Cc1cc(Cl)cc(-c2ccnc3cc(Cn4c(=O)ccn(C)c4=O)sc23)c1OC(C)CN (stereo not shown) [Example 553, 3-[[7-[2-(2-amino-1-methyl-ethoxy)-5-chloro-3-methyl-phenyl]thieno[3,2-b]pyridin-2-yl]methyl]-1-methyl-pyrimidine-2,4-dione; 2,2,2-trifluoroacetic acid] | –
< 1000 nM | – | Cc1cc(Cl)cc(-c2ccnc3cc(Cn4c(=O)ccn(CC(F)(F)F)c4=O)sc23)c1O[C@@H]1CN[C@H](C)C1 [Example 633, 3-[[7-[5-chloro-3-methyl-2-[(3S,5R)-5-methylpyrrolidin-3-yl]oxy-phenyl]thieno[3,2-b]pyridin-2-yl]methyl]-1-(2,2,2-trifluoroethyl)pyrimidine-2,4-dione] | –
< 1000 nM | – | CCN1CCCC(Oc2c(C)cc(Cl)cc2-c2ccnc3cc(Cn4c(=O)ccn(C)c4=O)sc23)C1 (stereo not shown) [Example 504, 3-[[7-[5-chloro-2-[(1-ethyl-3-piperidyl)oxy]-3-methyl-phenyl]thieno[3,2-b]pyridin-2-yl]methyl]-1-methyl-pyrimidine-2,4-dione] | –
< 1000 nM | – | Cc1cc(Cl)cc(-c2ccnc3cc(Cn4c(=O)ccn(C)c4=O)sc23)c1OC1CC2CC1N(C)C2 (stereo not shown) [Example 465] | –
< 1000 nM | – | Cc1cc(Cl)cc(-c2ccnc3cc(Cn4c(=O)ccn(C)c4=O)sc23)c1OC1CC[C@H](C)NC1 (stereo partly drawn) [Example 523, 3-[[7-[5-chloro-3-methyl-2-[[(6S)-6-methyl-3-piperidyl]oxy]phenyl]thieno[3,2-b]pyridin-2-yl]methyl]-1-methyl-pyrimidine-2,4-dione; 2,2,2-trifluoroacetic acid] | –
< 1000 nM | – | Cc1cc(Cl)cc(-c2ccnc3cc(CN4C(=O)CCC4=O)sc23)c1OC1CC2(CCN2)C1 (stereo not shown) [Example 439, 1-[[7-[2-(1-azaspiro[3.3]heptan-6-yloxy)-5-chloro-3-methyl-phenyl]thieno[3,2-b]pyridin-2-yl]methyl]pyrrolidine-2,5-dione; 2,2,2-trifluoroacetic acid] | –
< 1000 nM | – | Cc1cc(Cl)cc(-c2ccnc3cc(Cn4c(=O)ccn(CC(F)(F)F)c4=O)sc23)c1O[C@@H]1CCN(C(=O)C(F)(F)F)C[C@@H]1C [Example 609, 3-[[7-[5-chloro-3-methyl-2-[[(3S,4R)-3-methyl-1-(2,2,2-trifluoroacetyl)-4-piperidyl]oxy]phenyl]thieno[3,2-b]pyridin-2-yl]methyl]-1-(2,2,2-trifluoroethyl)pyrimidine-2,4-dione] | –
< 1000 nM | – | Cc1cc(Cl)cc(-c2ccnc3cc(Cn4c(=O)ccn(CC(F)(F)F)c4=O)sc23)c1O[C@@H]1CNC[C@@H]1C [Example 625, 3-[[7-[5-chloro-3-methyl-2-[(3S,4S)-4-methylpyrrolidin-3-yl]oxy-phenyl]thieno[3,2-b]pyridin-2-yl]methyl]-1-(2,2,2-trifluoroethyl)pyrimidine-2,4-dione] | –
< 1000 nM | – | Cc1cc(Cl)cc(-c2ccnc3cc(Cn4c(=O)ccn(C(C)C)c4=O)sc23)c1O[C@H]1CCC2NCCO[C@H]21 (stereo partly drawn) [Example 511, 4-[[7-[2-[[(7S,7aR)-2,3,4,4a,5,6,7,7a-octahydrocyclopenta[b][1,4]oxazin-7-yl]oxy]-5-chloro-3-methyl-phenyl]thieno[3,2-b]pyridin-2-yl]methyl]-1-isopropyl-pyrimidine-2,4-dione] | –
